Test results as given in patent publication US20210198277A1, “AMINE-SUBSTITUTED ARYL OR HETEROARYL COMPOUNDS” (Epizyme, Inc., priority 2016, published 2021).

Legend:
[1] = biological target: T1, EHMT1 (Homo sapiens, UniProt Q9H9B1); assay: EHMT1 enzyme assay on peptide substrate (EHMT1 PEP); format: biochemical; details: Table II; read-out: EHMT1 PEP (IC50 μM)
T1 sequence (Q9H9B1 1-1298): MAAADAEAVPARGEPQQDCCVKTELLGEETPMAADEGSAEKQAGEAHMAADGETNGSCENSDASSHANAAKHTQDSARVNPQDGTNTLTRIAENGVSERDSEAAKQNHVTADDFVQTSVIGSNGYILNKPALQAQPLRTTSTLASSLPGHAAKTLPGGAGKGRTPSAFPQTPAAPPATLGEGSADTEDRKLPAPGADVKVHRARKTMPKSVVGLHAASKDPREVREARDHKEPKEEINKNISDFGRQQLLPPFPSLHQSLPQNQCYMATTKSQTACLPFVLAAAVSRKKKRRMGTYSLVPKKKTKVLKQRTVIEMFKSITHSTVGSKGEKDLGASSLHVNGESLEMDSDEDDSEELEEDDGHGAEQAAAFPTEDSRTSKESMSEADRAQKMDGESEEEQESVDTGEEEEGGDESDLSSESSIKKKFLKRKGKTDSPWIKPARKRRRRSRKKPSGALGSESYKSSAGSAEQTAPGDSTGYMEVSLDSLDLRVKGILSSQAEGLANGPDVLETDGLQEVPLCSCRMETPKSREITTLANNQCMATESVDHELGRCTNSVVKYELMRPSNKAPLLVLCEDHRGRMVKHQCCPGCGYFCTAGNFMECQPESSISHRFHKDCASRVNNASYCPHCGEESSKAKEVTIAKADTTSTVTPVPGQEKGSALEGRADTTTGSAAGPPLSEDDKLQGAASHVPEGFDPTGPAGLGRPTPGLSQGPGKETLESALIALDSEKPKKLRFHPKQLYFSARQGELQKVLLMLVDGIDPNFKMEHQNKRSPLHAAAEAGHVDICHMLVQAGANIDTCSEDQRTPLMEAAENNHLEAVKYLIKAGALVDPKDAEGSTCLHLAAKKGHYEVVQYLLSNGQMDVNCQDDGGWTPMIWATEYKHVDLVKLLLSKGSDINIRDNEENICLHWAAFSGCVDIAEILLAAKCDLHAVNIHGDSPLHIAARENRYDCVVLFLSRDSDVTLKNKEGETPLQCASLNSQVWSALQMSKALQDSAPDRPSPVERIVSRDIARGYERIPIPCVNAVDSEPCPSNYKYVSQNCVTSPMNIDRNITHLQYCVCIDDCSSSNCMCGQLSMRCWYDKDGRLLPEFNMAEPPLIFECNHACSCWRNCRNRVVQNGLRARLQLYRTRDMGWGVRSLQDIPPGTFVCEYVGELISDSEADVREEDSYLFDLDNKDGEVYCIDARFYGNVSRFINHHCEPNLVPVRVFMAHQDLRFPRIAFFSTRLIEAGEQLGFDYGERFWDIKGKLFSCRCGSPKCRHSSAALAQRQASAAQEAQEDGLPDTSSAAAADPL

[2] = biological target: T2, human EHMT2 913-1193 (Homo sapiens, UniProt Q96KQ7); assay: EHMT2 enzyme assay on histone peptide substrate (EHMT2 PEP); format: biochemical; details: Table II; read-out: EHMT2 PEP (IC50 μM)
T2 construct: recombinant purified human EHMT2 913-1193, Viva; purchased Viva
T2 sequence (Q96KQ7 913-1193): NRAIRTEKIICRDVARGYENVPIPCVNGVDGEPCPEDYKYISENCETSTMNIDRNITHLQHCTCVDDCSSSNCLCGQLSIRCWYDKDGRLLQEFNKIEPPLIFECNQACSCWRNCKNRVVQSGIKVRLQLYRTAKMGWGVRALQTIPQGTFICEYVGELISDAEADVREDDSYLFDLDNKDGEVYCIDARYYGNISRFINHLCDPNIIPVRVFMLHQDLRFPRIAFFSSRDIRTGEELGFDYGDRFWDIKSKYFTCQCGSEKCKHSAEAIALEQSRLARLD
Method: Recombinant purified human EHMT2 913-1193 (55 μM) synthesized by Viva was used for all experiments. Biotinylated histone peptides were synthesized by Biopeptide and HPLC-purified to >95% purity. Streptavidin Flashplates and seals were purchased from PerkinElmer and 384 Well V-bottom Polypropylene Plates were from Greiner. ^3H-labeled S-adenosylmethionine (^3H-SAM) was obtained from American Radiolabeled Chemicals with a specific activity of 80 Ci/mmol. Unlabeled SAM and S-adenosylhomocysteine (SAH) were obtained from American Radiolabeled Chemicals and Sigma-Aldrich respectively. Flashplates were washed in a Biotek ELx-405 with 0.1% Tween. 384-well Flashplates and 96-well filter binding plates were read on a TopCount microplate reader (PerkinElmer). Compound serial dilutions were performed on a Freedom EVO (Tecan) and spotted into assay plates using a Thermo Scientific Matrix PlateMate (Thermo Scientific). Reagent cocktails were added by Multidrop Combi (Thermo Scientific).
General Procedure for EHMT2 Enzyme Assay on Histone Peptide Substrate.
10-point curves of test compounds were made on a Freedom EVO (Tecan) using serial 3-fold dilutions in DMSO, beginning at 2.5 mM (final top concentration of compound was 50 μM and the DMSO was 2%). A 1 μL aliquot of the inhibitor dilution series was spotted in a polypropylene 384-well V-bottom plate (Greiner) using a Thermo Scientific Matrix PlateMate (Thermo Scientific). […] Compounds were incubated for 30 minutes with 40 μL per well of 0.031 nM EHMT2 (recombinant purified human EHMT2 913-1193, Viva) in 1× assay buffer (20 mM Bicine [pH 7.5], 0.002% Tween 20, 0.005% Bovine Skin Gelatin and 1 mM TCEP). […] Reactions were incubated for 60 minutes at room temperature and quenched with 10 μL per well of 400 μM unlabeled SAM, then transferred to a 384-well streptavidin Flashplate (PerkinElmer) and washed in a Biotek ELx-405 well washer with 0.1% Tween after 60 minutes. 384-well Flashplates were read on a TopCount microplate reader (PerkinElmer).

| IC50 [1] | IC50 [2] | Compound |
| --- | --- | --- |
| < 0.1 µM | < 0.1 µM | COc1ccc(Nc2ccnc(NCC3CCNCC3)c2)cc1OCCCN1CCCC1 [Compound 11, N^4-(4-methoxy-3-(3-(pyrrolidin-1-yl)propoxy)phenyl)-N^2-(piperidin-4-ylmethyl)pyridine-2,4-diamine] |
| > 10 µM | > 10 µM | CCCCNc1nccc(NC2CCCCC2)n1 [Compound 58] |
| > 10 µM | > 10 µM | CCCCNc1nccc(NCC2CCOCC2)n1 [Compound 59] |
| 1 to 10 µM | 1 to 10 µM | CCCCNc1nccc(NCC2CCNCC2)n1 [Compound 60] |
| > 10 µM | > 10 µM | CCCCNc1nccc(NCC2CCCCC2)n1 [Compound 61] |
| > 10 µM | > 10 µM | CCCCNc1nccc(NCC2CCOC2)n1 (stereo not shown) [Compound 62] |
| > 10 µM | > 10 µM | CCCCNc1nccc(NC2CCOCC2)n1 [Compound 63] |
| > 10 µM | > 10 µM | CCCCNc1nccc(NC2CCNCC2)n1 [Compound 64] |
| > 10 µM | > 10 µM | CCCCNc1nccc(NC2CCN(C(C)=O)CC2)n1 [Compound 65] |
| > 10 µM | > 10 µM | CCCCNc1nccc(NCC2CCN(C(C)=O)CC2)n1 [Compound 66] |
| > 10 µM | > 10 µM | CCCCNc1nccc(NCC2CCCO2)n1 (stereo not shown) [Compound 67] |
| > 10 µM | > 10 µM | CCCCNc1nccc(NCC2CCC(N)CC2)n1 (stereo not shown) [Compound 68] |
| > 10 µM | > 10 µM | CCCCNc1nccc(NCC2CCC(NC(C)=O)CC2)n1 (stereo not shown) [Compound 69] |
| > 10 µM | > 10 µM | CCCCNc1nccc(NC2CCC(N)CC2)n1 (stereo not shown) [Compound 70] |
| > 10 µM | > 10 µM | CCCCNc1nccc(NC2CCC(NC(C)=O)CC2)n1 (stereo not shown) [Compound 71] |
| > 10 µM | > 10 µM | CCCCNc1ccnc(NCCCC)n1 [Compound 72] |
| > 10 µM | > 10 µM | CCCCNc1ccnc(NCCCN2CCCC2)n1 [Compound 73] |
| > 10 µM | > 10 µM | CCCCNc1nccc(NCCCN2CCCC2)n1 [Compound 74] |

| IC50 [1] | IC50 [2] | Compound |
| --- | --- | --- |
| > 10 µM | > 10 µM | COCCNc1nccc(N)n1 [Compound 75] |
| > 10 µM | > 10 µM | CCCCNc1nccc(NCCCN(C)C)n1 [Compound 76] |
| > 10 µM | > 10 µM | CCCCNc1ccnc(NCCCN)n1 [Compound 77] |
| > 10 µM | > 10 µM | CCCCNc1ccnc(NCCCN(C)C)n1 [Compound 78] |
| 1 to 10 µM | > 10 µM | CCCCNc1nccc(NCCCN)n1 [Compound 79] |
| > 10 µM | > 10 µM | CCCCNc1nccc(C(N)=O)n1 [Compound 80] |
| > 10 µM | > 10 µM | CCCCNc1nccc(C(=O)NC2CCOCC2)n1 [Compound 81] |
| > 10 µM | > 10 µM | CCCCNc1ncc(-c2ccccc2)c(N)n1 [Compound 82] |
| > 10 µM | > 10 µM | CCCCNc1ncc(C#N)c(NCC2CCNCC2)n1 [Compound 83] |
| > 10 µM | > 10 µM | CCCCNc1nc(NCC2CCNCC2)ncc1C#N [Compound 84] |
| > 10 µM | > 10 µM | CCCCNc1nc(NCC2CCNCC2)cc(C(N)=O)n1 [Compound 85] |
| 1 to 10 µM | 1 to 10 µM | CCCCNc1nc(C)cc(NCC2CCNCC2)n1 [Compound 86] |
| 1 to 10 µM | 1 to 10 µM | CCCCNc1ccnc(NCC2CCN(C)CC2)n1 [Compound 87] |
| > 10 µM | > 10 µM | CCCCNc1ncc(C(N)=O)c(NCC2CCNCC2)n1 [Compound 89] |
| 1 to 10 µM | > 10 µM | CCCCNc1ncc(C)c(NCC2CCNCC2)n1 [Compound 91] |
| > 10 µM | > 10 µM | O=C(NCCNc1ccnc(NCC2CCNCC2)n1)c1ccc2c(c1)OC(F)(F)O2 [Compound 92] |
| > 10 µM | > 10 µM | O=C(NCCNc1ccnc(NCC2CCNCC2)n1)c1cn(C2CC2)nn1 [Compound 93] |
